From ChEMBL document CHEMBL1129243, “(S)-(+)-2-(3'-carboxybicyclo[1.1.1]pentyl)-glycine, a structurally new group I metabotropic glutamate receptor antagonist” (J Med Chem, 1996) come the findings set out here.

Assay type in all cases: functional, cell-based
Assay [1] has as its target T1, Metabotropic glutamate receptor 5 (Homo sapiens, UniProt P41594). Put plainly: The compound was tested for effect on second messenger formation in BHK cells expressing mGluR5a.
For assay [2], the target named is T1, Metabotropic glutamate receptor 5. Put plainly: The compound was tested for effect on second messenger formation in BHK cells expressing mGluR5a at half maximal concentration.
Assay [3] addresses T2, Metabotropic glutamate receptor 2 (Homo sapiens, UniProt Q14416). Put plainly: The compound was tested for effect on second messenger formation in BHK cells expressing mGluR2.
Assay [4] concerns the target T3, Metabotropic glutamate receptor 4 (Homo sapiens, UniProt Q14833). Put plainly: The compound was tested for effect on second messenger formation in BHK cells expressing mGluR4a.
In assay [5] the target is T2, Metabotropic glutamate receptor 2. Put plainly: The compound was tested for inhibitory effect on second messenger formation in BHK cells expressing mGluR2.
For assay [6], the target named is T1, Metabotropic glutamate receptor 5. Put plainly: The compound was tested for inhibitory effect on second messenger formation in BHK cells expressing mGluR5a.
Assay [7] deals with T3, Metabotropic glutamate receptor 4. Put plainly: The compound was tested for inhibitory effect on second messenger formation in BHK cells expressing mGluR4a.

T3 sequence (Q14833 whole entry): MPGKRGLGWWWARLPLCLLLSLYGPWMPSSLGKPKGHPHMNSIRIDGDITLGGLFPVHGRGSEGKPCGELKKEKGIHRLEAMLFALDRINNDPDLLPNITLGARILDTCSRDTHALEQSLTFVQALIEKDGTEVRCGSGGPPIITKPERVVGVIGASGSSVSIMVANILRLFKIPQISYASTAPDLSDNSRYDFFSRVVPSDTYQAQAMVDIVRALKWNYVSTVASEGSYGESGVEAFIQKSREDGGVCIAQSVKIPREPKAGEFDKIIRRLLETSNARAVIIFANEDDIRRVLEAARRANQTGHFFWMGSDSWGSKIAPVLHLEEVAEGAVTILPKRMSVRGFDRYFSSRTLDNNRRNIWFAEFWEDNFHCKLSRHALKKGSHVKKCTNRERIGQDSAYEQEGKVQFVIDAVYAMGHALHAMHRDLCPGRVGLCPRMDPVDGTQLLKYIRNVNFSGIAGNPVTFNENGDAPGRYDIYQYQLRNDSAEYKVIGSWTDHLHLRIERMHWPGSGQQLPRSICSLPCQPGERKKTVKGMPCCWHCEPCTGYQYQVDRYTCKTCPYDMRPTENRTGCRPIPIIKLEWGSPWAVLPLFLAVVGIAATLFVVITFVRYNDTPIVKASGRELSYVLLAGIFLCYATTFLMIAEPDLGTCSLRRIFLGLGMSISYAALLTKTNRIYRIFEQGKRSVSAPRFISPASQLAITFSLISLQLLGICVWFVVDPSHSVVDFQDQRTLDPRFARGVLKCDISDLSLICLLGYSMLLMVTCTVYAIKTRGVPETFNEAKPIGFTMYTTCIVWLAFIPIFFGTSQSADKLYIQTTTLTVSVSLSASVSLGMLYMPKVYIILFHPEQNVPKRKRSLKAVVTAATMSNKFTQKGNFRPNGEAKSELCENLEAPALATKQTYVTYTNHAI
T2 sequence (Q14416 whole entry): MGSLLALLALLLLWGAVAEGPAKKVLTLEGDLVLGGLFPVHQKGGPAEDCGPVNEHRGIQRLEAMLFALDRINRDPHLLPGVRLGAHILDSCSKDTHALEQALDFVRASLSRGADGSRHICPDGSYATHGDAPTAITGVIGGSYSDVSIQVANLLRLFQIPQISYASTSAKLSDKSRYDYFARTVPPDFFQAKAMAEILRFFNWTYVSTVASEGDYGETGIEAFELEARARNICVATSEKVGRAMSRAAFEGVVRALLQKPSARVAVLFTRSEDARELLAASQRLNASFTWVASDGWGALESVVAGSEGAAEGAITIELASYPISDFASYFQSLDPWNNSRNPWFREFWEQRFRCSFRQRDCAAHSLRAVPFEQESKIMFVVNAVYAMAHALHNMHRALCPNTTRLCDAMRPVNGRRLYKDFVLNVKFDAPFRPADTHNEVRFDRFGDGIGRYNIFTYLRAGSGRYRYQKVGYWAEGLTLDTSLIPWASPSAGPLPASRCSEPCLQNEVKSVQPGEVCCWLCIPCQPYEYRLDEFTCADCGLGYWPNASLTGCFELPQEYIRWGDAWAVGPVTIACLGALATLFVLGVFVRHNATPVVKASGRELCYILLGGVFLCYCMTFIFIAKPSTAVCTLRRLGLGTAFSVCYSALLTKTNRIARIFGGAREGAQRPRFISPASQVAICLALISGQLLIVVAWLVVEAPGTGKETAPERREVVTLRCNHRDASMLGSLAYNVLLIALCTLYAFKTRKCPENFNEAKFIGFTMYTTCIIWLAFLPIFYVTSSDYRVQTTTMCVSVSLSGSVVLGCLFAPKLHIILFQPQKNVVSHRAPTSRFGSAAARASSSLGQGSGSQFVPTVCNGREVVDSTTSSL
T1 sequence (P41594 whole entry): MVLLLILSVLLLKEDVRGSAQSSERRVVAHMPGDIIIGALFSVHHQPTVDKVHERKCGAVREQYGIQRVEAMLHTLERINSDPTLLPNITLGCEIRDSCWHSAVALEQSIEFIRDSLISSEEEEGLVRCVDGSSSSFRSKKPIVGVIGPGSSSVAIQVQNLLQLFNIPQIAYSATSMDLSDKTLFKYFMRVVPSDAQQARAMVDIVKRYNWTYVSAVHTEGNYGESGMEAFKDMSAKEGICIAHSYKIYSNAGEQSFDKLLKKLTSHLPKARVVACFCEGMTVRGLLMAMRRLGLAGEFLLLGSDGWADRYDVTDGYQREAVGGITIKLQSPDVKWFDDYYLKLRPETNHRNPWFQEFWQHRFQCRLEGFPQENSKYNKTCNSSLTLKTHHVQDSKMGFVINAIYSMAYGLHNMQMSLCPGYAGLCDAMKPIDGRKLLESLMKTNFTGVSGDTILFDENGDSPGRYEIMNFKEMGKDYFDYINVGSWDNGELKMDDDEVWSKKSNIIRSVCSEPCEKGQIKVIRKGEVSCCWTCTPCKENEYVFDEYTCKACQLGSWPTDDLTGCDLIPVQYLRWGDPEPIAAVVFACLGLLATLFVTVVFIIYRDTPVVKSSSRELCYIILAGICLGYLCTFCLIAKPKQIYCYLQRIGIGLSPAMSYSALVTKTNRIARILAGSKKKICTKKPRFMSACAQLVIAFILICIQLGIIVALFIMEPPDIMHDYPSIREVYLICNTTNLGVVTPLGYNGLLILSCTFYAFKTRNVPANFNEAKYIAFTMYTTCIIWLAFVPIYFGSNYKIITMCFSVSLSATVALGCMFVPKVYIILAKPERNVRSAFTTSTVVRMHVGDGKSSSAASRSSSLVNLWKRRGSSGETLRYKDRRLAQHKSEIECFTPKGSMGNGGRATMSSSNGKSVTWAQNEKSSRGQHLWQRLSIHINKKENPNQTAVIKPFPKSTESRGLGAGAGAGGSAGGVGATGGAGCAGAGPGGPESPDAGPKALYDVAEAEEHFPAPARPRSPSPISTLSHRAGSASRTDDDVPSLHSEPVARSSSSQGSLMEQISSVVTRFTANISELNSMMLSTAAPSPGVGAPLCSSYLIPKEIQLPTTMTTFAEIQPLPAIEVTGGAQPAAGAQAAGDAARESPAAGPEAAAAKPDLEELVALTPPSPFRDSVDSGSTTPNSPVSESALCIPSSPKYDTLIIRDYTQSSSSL

The EC50 is the concentration needed to bring the measured effect to its halfway point. Higher therefore signals lower potency in that assay. Usually IC50 stands for the midpoint of a concentration-inhibition curve. Lower therefore signals inhibition by little substance. Consider `N[C@H](C(=O)O)C12CC(C(=O)O)(C1)C2`, for which the EC50 in assay [1] is above 300 µM; in assay [2], 103 µM; in assay [3], above 300 µM; in assay [4], above 300 µM. In addition, the IC50 in assay [5], in assay [6] and in assay [7] was above 300 µM throughout.
With `N[C@@H](C(=O)O)C12CC(C(=O)O)(C1)C2`, the EC50 in assay [1], in assay [3] and in assay [4] was above 300 µM each time. For the same molecule, the 50% inhibitory concentration (IC50) in assay [5], in assay [6] and in assay [7] was above 300 µM each time.
